The term inhibition denotes the drop in the measured response relative to a control, in per cent. Read a high inhibition as strong suppression.

Structures are written as SMILES. Bounds are passed on as bounds.

This note sets out measurements from PMC6801405, “Discovery of 3-Arylquinoxaline Derivatives as Potential Anti-Dengue Virus Agents” (International Journal of Molecular Sciences, 2019).

One assay relates to DENV2. Kind of assay: microbe, parasite or virus in culture. Format: cell-based, dengue virus.
The next assay has as its system COX-2 expression. Kind of assay: COX-2 protein and mRNA expression in Huh-7 cells (Western blotting, RT-qPCR). Format: cell-based, Human. To be noted: 0.5 to 5 μM, vs DMSO. As for the experimental part:
(§1) In a previous study, Lin et al. reported that induction of COX-2 could suppress DENV replication. To determine whether compound 19a had impact on COX-2 protein and mRNA expression in Huh-7 cells, we treated Huh-7 cells with 0.5 to 5 μM of 19a. […] To characterize whether the 19a-mediated downregulation of COX-2 expression and its catalytic activity was involved in the suppression of DENV replication, we overexpressed exogenous COX-2 to evaluate the inhibitory activity of 19a on DENV replication. […] Consistently, the exogenous expression of COX-2 attenuated the inhibitory effect of 19a on the non-structural 2B (NS2B) protein levels, as analyzed by Western blotting.
Huh-7 cells were seeded in 24-well plates at a density of 5 × 10^4 cells per well overnight and treated with indicated reagent at proper concentrations for three days. […] The protein concentration was determined by the Bradford method. […] The blotting signal was developed using an enhanced chemiluminescence (ECL) detection kit (PerkinElmer, Waltham, MA, USA) and was counted by the software Quantity One (Bio-Rad, Hercules, CA, USA). […]
(§2) Figure 4 Inhibitory effect of 19a on DENV-induced cyclooxygenase-2 (COX-2) expression in Huh-7 cells. […] The results are expressed as the means ± standard deviations (SD) of triplicate experiments.

The subject of the next assay is DENV. Kind of assay: Exogenous COX-2 (pCMV-COX-2-Myc) overexpression rescue of DENV replication in Huh-7 cells. The settings on record: 1 μM; pCMV-COX-2-Myc transfected Huh-7 cells. Format: cell-based, dengue virus. As for the experimental part:
as §1
Huh-7-DV-Fluc cells were seeded in 24-well plates at a density of 2 × 10^4 cells per well, and treated with the 3-arylquinoxaline compounds at two concentrations (1 and 10 μM) or 0.1% DMSO as control. […] After three days, protein and RNA levels were analyzed by Western blotting with a specific antibody as previously described respectively.
as §2

Experimental for DENV2: Anti-DENV activities were determined by firefly luciferase activity.
Huh-7-DV-Fluc cells were seeded in 24-well plates at a density of 2 × 10^4 cells per well, and treated with the 3-arylquinoxaline compounds at two concentrations (1 and 10 μM) or 0.1% DMSO as control. After three days of incubation, the luciferase activity assay was performed using the Bright-Glo Luciferase assay system (Promega, Madison, WI, USA) according to the manufacturer’s instructions.

Regarding `COc1ccc(-c2nc3ccccc3nc2C(O)c2ccccc2)cc1` (centres unmarked) [Compound 19a, [3-(4-Methoxyphenyl)quinoxalin-2-yl](phenyl)methanol], the “DENV2 % Inhibition at 10 μM” value in the assay on DENV2 (10 μM, Huh-7-DV-Fluc cells, three days, mean ± SD) came out at 82.71 ± 2.88%. Further, the “SI (selectivity index, CC50/EC50)” value with DENV2 (CC50 Huh-7 / EC50 DENV) is listed as over 155.04. Further, testing at 1 µM in the assay with DENV2 (Dengue virus, DENV2, 72 h, 1 μM, Huh-7-DV-Fluc cells, three days, mean ± SD) gave an inhibition of 36.7 ± 3.71%. The EC50 with DENV2 (Dengue virus, DENV2, DENV replication, mean ± SD, read-out: EC50 (concentration resulting in a 50% inhibition in virus production)) is 1290 ± 740 nM. Moreover, the “fold more anti-DENV activity than ribavirin” value in the assay with DENV2 (EC50 compared with ribavirin) was “approximately 10 fold”. In the assay with COX-2 expression, the “COX-2 mRNA level” value was “could inhibit” and the COX-2 protein level entry is reported as “could inhibit”. Moreover, the “viral RNA level reduced by compound upon increasing exogenous COX-2-Myc expression” value in the assay with DENV is reported as “gradually rescued”.
